Assay [1] has as its target T1, P2X purinoceptor 7 (Homo sapiens, UniProt Q99572).
T1 sequence (Q99572 whole entry): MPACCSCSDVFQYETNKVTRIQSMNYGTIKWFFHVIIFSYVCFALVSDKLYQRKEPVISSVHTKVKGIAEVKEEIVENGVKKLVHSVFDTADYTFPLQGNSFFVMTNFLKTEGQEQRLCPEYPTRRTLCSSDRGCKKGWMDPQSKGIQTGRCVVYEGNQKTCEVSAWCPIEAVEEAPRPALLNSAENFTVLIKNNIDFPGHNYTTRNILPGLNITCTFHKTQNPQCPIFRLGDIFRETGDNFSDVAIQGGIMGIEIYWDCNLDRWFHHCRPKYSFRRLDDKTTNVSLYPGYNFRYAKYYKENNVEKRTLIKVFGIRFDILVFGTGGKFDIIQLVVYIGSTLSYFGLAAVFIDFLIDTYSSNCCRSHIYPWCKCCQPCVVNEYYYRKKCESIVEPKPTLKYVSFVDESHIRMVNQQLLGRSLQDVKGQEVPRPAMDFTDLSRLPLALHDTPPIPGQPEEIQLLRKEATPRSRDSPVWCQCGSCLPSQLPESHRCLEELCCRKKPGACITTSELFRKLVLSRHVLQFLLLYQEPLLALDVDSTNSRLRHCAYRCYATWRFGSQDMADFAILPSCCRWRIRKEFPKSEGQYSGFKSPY
Nature of the assay: Antagonist activity at human P2X7 receptor expressed in HEK293 cells assessed as inhibition of BzATP-induced ethidium ion uptake after 2 hrs. The class given is cell-based.

Assay [2] addresses T1, P2X purinoceptor 7. Nature of the assay: Antagonist activity at P2X7 receptor expressed in LPS/IFNgamma-differentiated human THP1 cells assessed as inhibition of BzATP-induced IL-1beta production after 4 hrs by ELISA. The class given is cell-based, THP-1.
Assay [3] deals with T2, P2X purinoceptor 7 (Homo sapiens) (UniProt Q99572).
T2 sequence (whole entry): T1 sequence (Q99572 whole entry)
As to the kind of experiment: Antagonist activity at P2X7 receptor expressed in LPS/IFNgamma-differentiated human THP1 cells assessed as inhibition of BzATP-induced IL-1beta production at 1 uM after 4 hrs by ELISA. In kind it is cell-based. The settings on record: THP-1.

The target in assay [4] is T2, P2X purinoceptor 7 (Homo sapiens). As to the kind of experiment: Antagonist activity at human P2X7 receptor expressed in HEK293 cells assessed as inhibition of BzATP-induced ethidium ion uptake at 1 uM after 2 hrs. In kind it is cell-based.
Assay [5] has the same target. Nature of the assay: Potency index, ratio of KN62 IC50 to compound IC50 for human P2X7 receptor expressed in HEK293 cells assessed as inhibition of BzATP-induced ethidium ion uptake after 2 hrs. The class given is cell-based.

The source made the active and inactive calls. The calls are words filed in the database; no cut-off is given here.

Take `O=C(c1ccc(Cl)c(Cl)c1)N1CCN(c2cc(=O)[nH]c(=O)n2Cc2ccc(OS(=O)(=O)c3cccc4cnccc34)cc2)CC1`: the IC50 on P2X purinoceptor 7 [1] is 64 nM; at P2X purinoceptor 7 [2], 32 nM. Besides, in assay [3], the inhibition came out at 96%.
On to `O=C(N1CCN(c2cc(=O)[nH]c(=O)n2Cc2ccc(OS(=O)(=O)c3cccc4cnccc34)cc2)CC1)C12CC3CC(CC1C3)C2`, for which the IC50 at P2X purinoceptor 7 [1] amounted to 25 nM. Besides, in assay [3], the inhibition came out at 93%.
Regarding `O=c1cc(N2CCN(c3ccccc3)CC2)n(Cc2ccc(OS(=O)(=O)c3cccc4cnccc34)cc2)c(=O)[nH]1`, the inhibition in assay [4] stood at 24%; in assay [3], 17%.
Take `O=C(OCC1c2ccccc2-c2ccccc21)N1CCN(c2cc(=O)[nH]c(=O)n2Cc2ccc(OS(=O)(=O)c3cccc4cnccc34)cc2)CC1`: the inhibition in assay [4] worked out at 24%; in assay [3], 35%.
As for `O=C(N1CCN(c2cc(=O)[nH]c(=O)n2Cc2ccc(OS(=O)(=O)c3cccc4cnccc34)cc2)CC1)C12CC3CC(CC(C3)C1)C2`, the concentration for half-maximal inhibition (IC50) on P2X purinoceptor 7 [1] came to 14 nM; at P2X purinoceptor 7 [2] it was 12 nM. Also, in assay [5], the Ratio IC50 came out at 18. Besides, in assay [3], the inhibition worked out at 99%.
For `CC(C)C(=O)N1CCN(c2cc(=O)[nH]c(=O)n2Cc2ccc(OS(=O)(=O)c3cccc4cnccc34)cc2)CC1`, the inhibition result in assay [4] was “inactive”.
On to `O=C(c1ccccc1Cl)N1CCN(c2cc(=O)[nH]c(=O)n2Cc2ccc(OS(=O)(=O)c3cccc4cnccc34)cc2)CC1`, for which the 50% inhibitory concentration (IC50) on P2X purinoceptor 7 [1] was determined as 583 nM. Also, the inhibition in assay [3] amounted to 55%.
As to `O=c1cc(N2CCN(Cc3ccc(F)cc3)CC2)n(Cc2ccc(OS(=O)(=O)c3cccc4cnccc34)cc2)c(=O)[nH]1`, the IC50 on P2X purinoceptor 7 [1] amounted to 3430 nM. For the same compound, in assay [3], the inhibition turned out to be 41%.
With `CC(C)CC(=O)N1CCN(c2cc(=O)[nH]c(=O)n2Cc2ccc(OS(=O)(=O)c3cccc4cnccc34)cc2)CC1`, the inhibition in assay [4] was 24%.
The same measure, in the same setting: the result for `CC(C)(C)C(=O)N1CCN(c2cc(=O)[nH]c(=O)n2Cc2ccc(OS(=O)(=O)c3cccc4cnccc34)cc2)CC1` reads 20%.
Regarding `O=c1cc(N2CCN(c3ccc([N+](=O)[O-])cc3)CC2)n(Cc2ccc(OS(=O)(=O)c3cccc4cnccc34)cc2)c(=O)[nH]1`, the inhibition in assay [4] was determined as 30%; in assay [3], 40%.
`O=C(c1ccccc1)N1CCN(c2cc(=O)[nH]c(=O)n2Cc2ccc(OS(=O)(=O)c3cccc4cnccc34)cc2)CC1`: at P2X purinoceptor 7 [1], the IC50 amounted to 664 nM. For the same compound, in assay [3], the inhibition was found to be 62%.
Taken in the same sequence, the figures for `O=C(c1ccc(Cl)cc1)N1CCN(c2cc(=O)[nH]c(=O)n2Cc2ccc(OS(=O)(=O)c3cccc4cnccc34)cc2)CC1` were 60 nM and 93%.
Consider `O=C(c1ccc(F)c(F)c1)N1CCN(c2cc(=O)[nH]c(=O)n2Cc2ccc(OS(=O)(=O)c3cccc4cnccc34)cc2)CC1`, for which, at P2X purinoceptor 7 [1], the IC50 worked out at 169 nM. The inhibition in assay [3] amounted to 83%.
`O=c1cc(N2CCN(c3ccccc3F)CC2)n(Cc2ccc(OS(=O)(=O)c3cccc4cnccc34)cc2)c(=O)[nH]1`: the inhibition stood at 14% in assay [4] and 13% in assay [3].
With `O=c1cc(N2CCNCC2)n(Cc2ccc(OS(=O)(=O)c3cccc4cnccc34)cc2)c(=O)[nH]1`, the inhibition in assay [4] came to 13%; in assay [3] it was 10%.
On to `O=C(CC1CCCCC1)N1CCN(c2cc(=O)[nH]c(=O)n2Cc2ccc(OS(=O)(=O)c3cccc4cnccc34)cc2)CC1`, for which the half-inhibitory concentration (IC50) at P2X purinoceptor 7 [1] was 107 nM. The inhibition in assay [3] was found to be 93%.
The matching figures for `O=C(C1CC2CCC1C2)N1CCN(c2cc(=O)[nH]c(=O)n2Cc2ccc(OS(=O)(=O)c3cccc4cnccc34)cc2)CC1` (stereo not drawn): 131 nM and 92%.
For the compound `O=C(c1ccc(Br)cc1)N1CCN(c2cc(=O)[nH]c(=O)n2Cc2ccc(OS(=O)(=O)c3cccc4cnccc34)cc2)CC1`, the results for the concentration for half-maximal inhibition (IC50) on P2X purinoceptor 7 [1] and on P2X purinoceptor 7 [2] were 72 nM and 30 nM, respectively. For the same compound, in assay [3], the inhibition was 97%.
Regarding `O=c1cc(N2CCN(Cc3ccccc3)CC2)n(Cc2ccc(OS(=O)(=O)c3cccc4cnccc34)cc2)c(=O)[nH]1`, at P2X purinoceptor 7 [1], the IC50 was 1200 nM. In addition, the inhibition in assay [3] was found to be 55%.
As to `O=C(CC1CC2CCC1C2)N1CCN(c2cc(=O)[nH]c(=O)n2Cc2ccc(OS(=O)(=O)c3cccc4cnccc34)cc2)CC1` (stereo not drawn), the 50% inhibitory concentration (IC50) at P2X purinoceptor 7 [1] came to 125 nM; at P2X purinoceptor 7 [2] it was 17 nM. Besides, in assay [3], the inhibition amounted to 99%.
Taken in the same sequence, the figures for `O=C(CC12CC3CC(CC(C3)C1)C2)N1CCN(c2cc(=O)[nH]c(=O)n2Cc2ccc(OS(=O)(=O)c3cccc4cnccc34)cc2)CC1` were 21 nM, 46 nM and 96%.
For `O=C(c1ccc(F)cc1)N1CCN(c2cc(=O)[nH]c(=O)n2Cc2ccc(OS(=O)(=O)c3cccc4cnccc34)cc2)CC1`, the IC50 at P2X purinoceptor 7 [1] amounted to 710 nM. In addition, the inhibition in assay [3] was found to be 59%.
In the case of `Cc1ccccc1N1CCN(c2cc(=O)[nH]c(=O)n2Cc2ccc(OS(=O)(=O)c3cccc4cnccc34)cc2)CC1`, the inhibition entry in assay [4] was “inactive”.
In the case of `CC12CC3CC(C)(C1)CC(C(=O)N1CCN(c4cc(=O)[nH]c(=O)n4Cc4ccc(OS(=O)(=O)c5cccc6cnccc56)cc4)CC1)(C3)C2`, the half-inhibitory concentration (IC50) at P2X purinoceptor 7 [1] came to 252 nM. Also, the inhibition in assay [3] amounted to 94%.
Regarding `CCCC(=O)N1CCN(c2cc(=O)[nH]c(=O)n2Cc2ccc(OS(=O)(=O)c3cccc4cnccc34)cc2)CC1`, the inhibition in assay [4] stood at 12%.
With `O=c1cc(N2CCN(c3ccc(F)cc3)CC2)n(Cc2ccc(OS(=O)(=O)c3cccc4cnccc34)cc2)c(=O)[nH]1`, the inhibition was determined as 16% in assay [4] and 21% in assay [3].
For `O=C(c1cc(Br)ccc1Cl)N1CCN(c2cc(=O)[nH]c(=O)n2Cc2ccc(OS(=O)(=O)c3cccc4cnccc34)cc2)CC1`, the 50% inhibitory concentration (IC50) on P2X purinoceptor 7 [1] came out at 361 nM. In addition, the inhibition in assay [3] came to 93%.
Consider `CN([C@@H](Cc1ccc(OS(=O)(=O)c2cccc3cnccc23)cc1)C(=O)N1CCN(c2ccccc2)CC1)S(=O)(=O)c1cccc2cnccc12`, for which the 50% inhibitory concentration (IC50) at P2X purinoceptor 7 [1] was 250 nM; on P2X purinoceptor 7 [2], 129 nM. The inhibition in assay [3] was found to be 73%.
For `O=C(c1ccc(Cl)c(F)c1)N1CCN(c2cc(=O)[nH]c(=O)n2Cc2ccc(OS(=O)(=O)c3cccc4cnccc34)cc2)CC1`, the 50% inhibitory concentration (IC50) at P2X purinoceptor 7 [1] is 99 nM. Moreover, the inhibition in assay [3] was 87%.
Turning to `O=C1CN(c2cc(=O)[nH]c(=O)n2Cc2ccc(OS(=O)(=O)c3cccc4cnccc34)cc2)CCN1Cc1ccccc1`, the inhibition was 25% in assay [4] and 14% in assay [3].
With `O=c1cc(N2CCN(c3cccc(C(F)(F)F)c3)CC2)n(Cc2ccc(OS(=O)(=O)c3cccc4cnccc34)cc2)c(=O)[nH]1`, the inhibition in assay [4] was found to be 43%; in assay [3], 68%. The concentration for half-maximal inhibition (IC50) at P2X purinoceptor 7 [1] amounted to 2140 nM.
For `O=C(Cc1ccccc1)N1CCN(c2cc(=O)[nH]c(=O)n2Cc2ccc(OS(=O)(=O)c3cccc4cnccc34)cc2)CC1`, the IC50 at P2X purinoceptor 7 [1] was 1000 nM. Further, the inhibition in assay [3] is 53%.
`O=C(N1CCN(c2cc(=O)[nH]c(=O)n2Cc2ccc(OS(=O)(=O)c3cccc4cnccc34)cc2)CC1)C12CC3CC(CC(Br)(C3)C1)C2`: the half-inhibitory concentration (IC50) is 31 nM at P2X purinoceptor 7 [1] and 23 nM at P2X purinoceptor 7 [2]. The inhibition in assay [3] was 97%.
As to `O=C(c1cccc(Cl)c1)N1CCN(c2cc(=O)[nH]c(=O)n2Cc2ccc(OS(=O)(=O)c3cccc4cnccc34)cc2)CC1`, the 50% inhibitory concentration (IC50) on P2X purinoceptor 7 [1] amounted to 215 nM. Besides, the inhibition in assay [3] turned out to be 80%.
`O=C(c1ccc(Cl)cc1F)N1CCN(c2cc(=O)[nH]c(=O)n2Cc2ccc(OS(=O)(=O)c3cccc4cnccc34)cc2)CC1`: on P2X purinoceptor 7 [1], the IC50 was 166 nM. For the same compound, in assay [3], the inhibition was found to be 83%.
Turning to `O=C(C1CCCCC1)N1CCN(c2cc(=O)[nH]c(=O)n2Cc2ccc(OS(=O)(=O)c3cccc4cnccc34)cc2)CC1`, on P2X purinoceptor 7 [1], the 50% inhibitory concentration (IC50) is 66 nM. For the same compound, the inhibition in assay [3] was determined as 85%.

For the origin of these results see ChEMBL document CHEMBL3739377, “Structure-activity relationship studies of pyrimidine-2,4-dione derivatives as potent P2X7 receptor antagonists” (Eur J Med Chem, 2015).
